In ChEMBL document CHEMBL2311251, “Synthesis and structure-activity relationship of piperidine-derived non-urea soluble epoxide hydrolase inhibitors” (Bioorg Med Chem Lett, 2013):

Experiments:
[1] = molecular target: T1, Bifunctional epoxide hydrolase 2 (Homo sapiens, UniProt P34913); test: Inhibition of human sEH assessed as 6-methoxy-2-naphthaldehyde generation preincubated for 10 before addition of cyano(2-methyl-oxynaphthalen-6-yl)methyl trans-(3-phenyloxyran-2-yl) methyl carbonate by fluorescence analysis
T1 sequence (P34913 whole entry): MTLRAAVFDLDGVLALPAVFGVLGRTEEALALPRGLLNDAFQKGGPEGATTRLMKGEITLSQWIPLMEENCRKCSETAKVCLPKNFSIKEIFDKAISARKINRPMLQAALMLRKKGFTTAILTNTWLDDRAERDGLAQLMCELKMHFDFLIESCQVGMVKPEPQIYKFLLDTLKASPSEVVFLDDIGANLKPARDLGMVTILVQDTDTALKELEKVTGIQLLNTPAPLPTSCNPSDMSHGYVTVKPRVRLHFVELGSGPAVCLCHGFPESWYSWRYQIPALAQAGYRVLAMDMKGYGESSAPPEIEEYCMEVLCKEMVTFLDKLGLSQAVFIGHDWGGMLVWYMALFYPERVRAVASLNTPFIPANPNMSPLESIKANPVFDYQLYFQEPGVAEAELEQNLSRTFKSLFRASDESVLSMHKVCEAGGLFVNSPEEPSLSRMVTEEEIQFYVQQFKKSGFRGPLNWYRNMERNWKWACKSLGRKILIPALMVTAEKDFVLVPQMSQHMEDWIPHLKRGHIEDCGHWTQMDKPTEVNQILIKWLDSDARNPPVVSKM

[2] = test system: Liver microsomes; test: Half life in human liver microsomes after 90 mins by LC/MS analysis; format: ADME, Microsome; settings: 1.5 h

SMILES | IC50 [1] [µM] | t1/2 [2] [min]
Cc1ccc(S(=O)(=O)N2CCC(C(=O)Nc3cccc(C(F)(F)F)c3)CC2)c(C)c1 | 0.64 | –
Cc1ccc(S(=O)(=O)N2CCC(C(=O)Nc3ccc4ccccc4c3)CC2)c(C)c1 | 0.0083 | 8.7
Cc1ccc(S(=O)(=O)N2CCC(C(=O)Nc3ccccc3F)CC2)c(C)c1 | 0.0011 | –
Cc1ccc(S(=O)(=O)N2CCC(C(=O)Nc3ccc4ncccc4c3)CC2)c(C)c1 | 0.013 | –
Cc1ccc(S(=O)(=O)N2CCC(C(=O)Nc3ccccc3Br)CC2)c(C)c1 | 0.0006 | –
COc1cc2c(cc1NC(=O)C1CCN(S(=O)(=O)c3ccc(C)cc3C)CC1)OCO2 | 30 | –
Cc1ccc(S(=O)(=O)N2CCC(C(=O)Nc3ccc(F)cc3)CC2)c(C)c1 | 0.29 | –
Cc1ccc(S(=O)(=O)N2CCC(C(=O)NC3CCCc4ccccc43)CC2)c(C)c1 (stereo unspecified) | 0.041 | –
Cc1ccc(S(=O)(=O)N2CCC(C(=O)Nc3ccc(OC(F)(F)F)cc3)CC2)c(C)c1 | 0.023 | –
Cc1ccc(S(=O)(=O)N2CCC(C(=O)Nc3ccc(N4CCCCC4)c(C(N)=O)c3)CC2)c(C)c1 | 0.043 | –
Cc1ccc(S(=O)(=O)N2CCC(C(=O)Nc3ccc(Cl)cc3)CC2)c(C)c1 | 2.2 | –
Cc1ccc(S(=O)(=O)N2CCC(C(=O)Nc3ccc(Oc4ccccc4)cc3)CC2)c(C)c1 | 0.02 | –
Cc1ccc(S(=O)(=O)N2CCC(C(=O)Nc3ccccc3)CC2)c(C)c1 | 0.0069 | –
Cc1ccc(S(=O)(=O)N2CCC(C(=O)Nc3ccc(C(=O)O)cc3)CC2)c(C)c1 | 0.017 | –
COC(=O)c1ccc2cc(NC(=O)C3CCN(S(=O)(=O)c4ccc(C)cc4C)CC3)ccc2c1 | 0.11 | –
Cc1ccc(S(=O)(=O)N2CCC(C(=O)Nc3ccc([N+](=O)[O-])cc3)CC2)c(C)c1 | 0.012 | –
Cc1ccc(S(=O)(=O)N2CCC(C(=O)Nc3ccc(Cl)c(C(F)(F)F)c3)CC2)c(C)c1 | 0.078 | –
Cc1ccc(S(=O)(=O)N2CCC(C(=O)Nc3ccccc3O)CC2)c(C)c1 | 0.0012 | 2.4
Cc1ccc(S(=O)(=O)N2CCC(C(=O)Nc3cccc4cccnc34)CC2)c(C)c1 | 0.006 | 11
Cc1ccc(S(=O)(=O)N2CCC(C(=O)N[C@H]3C[C@@H]3c3ccccc3)CC2)c(C)c1 | 6.9 | –
Cc1ccc(S(=O)(=O)N2CCC(C(=O)Nc3ccccc3Cl)CC2)c(C)c1 | 0.0087 | –

SMILES | IC50 [1] [µM] | t1/2 [2] [min]
Cc1ccc(S(=O)(=O)N2CCC(C(=O)Nc3ccc(Br)cc3)CC2)c(C)c1 | 0.045 | –
Cc1ccc(S(=O)(=O)N2CCC(C(=O)Nc3cnc4ccccc4c3)CC2)c(C)c1 | 0.0023 | –
COC(=O)c1ccc(NC(=O)C2CCN(S(=O)(=O)c3ccc(C)cc3C)CC2)cc1 | 0.0085 | 3.7
Cc1ccc(S(=O)(=O)N2CCC(C(=O)Nc3ccc(N4CCCCC4)cc3)CC2)c(C)c1 | 0.02 | –
Cc1ccc(S(=O)(=O)N2CCC(C(=O)Nc3ccccc3C)CC2)c(C)c1 | 0.02 | –
Cc1ccc(S(=O)(=O)N2CCC(C(=O)NC3CCCC3)CC2)c(C)c1 | – | 14
Cc1ccc(S(=O)(=O)N2CCC(C(=O)Nc3ccc4c(c3)OCO4)CC2)c(C)c1 | 0.0052 | 46
Cc1ccc(S(=O)(=O)N2CCC(C(=O)Nc3cccc4cnccc34)CC2)c(C)c1 | 0.023 | 220
Cc1ccc(S(=O)(=O)N2CCC(C(=O)Nc3ccc(N4CCOCC4)cc3)CC2)c(C)c1 | 0.25 | –
Cc1ccc(S(=O)(=O)N2CCC(C(=O)Nc3cc(Cl)cc(Cl)c3)CC2)c(C)c1 | 0.025 | –
Cc1ccc(S(=O)(=O)N2CCC(C(=O)NCC(C)C)CC2)c(C)c1 | 0.018 | –
Cc1ccc(S(=O)(=O)N2CCC(C(=O)NC34CC5CC(CC(C5)C3)C4)CC2)c(C)c1 | 0.0017 | 14
Cc1ccc(S(=O)(=O)N2CCC(C(=O)Nc3ccc(C(F)(F)F)cc3)CC2)c(C)c1 | 0.03 | –
COc1ccc(NC(=O)C2CCN(S(=O)(=O)c3ccc(C)cc3C)CC2)cc1 | 0.025 | –
Cc1ccc(S(=O)(=O)N2CCC(C(=O)Nc3ccc(O)cc3)CC2)c(C)c1 | 0.0004 | –
Cc1ccc(S(=O)(=O)N2CCC(C(=O)Nc3ccc(C(C)C)cc3)CC2)c(C)c1 | 0.0067 | 25
Cc1ccc(S(=O)(=O)N2CCC(C(=O)NC3CC3)CC2)c(C)c1 | – | 180
Cc1ccc(S(=O)(=O)N2CCC(C(=O)Nc3ccc(S(=O)(=O)C(F)(F)F)cc3)CC2)c(C)c1 | 0.0016 | 36
Cc1ccc(S(=O)(=O)N2CCC(C(=O)Nc3ccc(Cl)c(Cl)c3)CC2)c(C)c1 | 0.055 | –
Cc1ccc(S(=O)(=O)N2CCC(C(=O)Nc3ccc4cc(C(=O)O)ccc4c3)CC2)c(C)c1 | 0.0006 | 36
